In US20050137183A1, “Method and pharmaceutical compositions for treating or inhibiting renal dysfunctions, diseases or disorders, particularly in diabetic patients” (Solvay Pharmaceuticals GmbH, priority 2003, published 2005):

Key:
Type in all cases: in vivo, rat
[1] = system: rats with streptozotocin-induced diabetes; test: Glomerular filtration rate by endogenous creatinine clearance in streptozotocin-induced diabetic rats; settings: 30 mg/kg/day oral, after 18 weeks of treatment
Procedure: (§1) All experiments were conducted in accordance with guidelines for the care and use of laboratory animals. Diabetes was induced in rats by a single tail vein injection of streptozotocin (60 mg/kg b.wt.), without insulin treatment, as recently described in Horcher et al., “Renal endothelin system in diabetes: inhibition and endothelin-A antagonism.”, J. Cardiovasc. Pharmacol. 1998; 31: 492-495. Diabetes was confirmed in streptozotocin treated rats by determining serum glucose concentrations. Only those rats were included having plasma glucose concentrations of >15 mmol/l (hyperglycemic rats, diabetic rats). Three groups of rats were investigated with n 7 to 11 per group: • 1) non-diabetic rats control group; • 2) diabetic rats control group, vehicle treated; • 3) treated diabetic rats group: with test compound of formula I ((3S,2′R)-3-{1-[2′-(ethoxycarbonyl)-4′-phenylbutyl]-cyclopentane-1-carbonylamino}-2,3,4,5-tetrahydro-2-oxo-1H-1-benzazepine-1-acetic-acid), 30 mg/kg/day for 18 weeks.
Glomerular filtration rate was calculated by the endogeneous creatinine clearance. It was observed that administering a compound of formula I as defined above improved the overall glomerular filtration rate.

[2] = system: rats with streptozotocin-induced diabetes; test: Blood pressure (tail-cuff plethysmography), heart rate, body weight, glucose and side-effects in streptozotocin-induced diabetic rats
Procedure: as §1
The experiment performed according to the present invention over 18 weeks of treatment provided the following results which are detailed in Table I, and FIGS. 1 and 2. In the context of the present invention, the most important data to be considered are the mean blood pressure (BP; tail-cuff plethysmography), the protein and albumin excretion (mean values, standard deviations) in urine which was collected in metabolic cages over 24 h, and number (n) of animals in each group regarding non-diabetic controls, diabetic vehicle treated controls (=placebo) and test compound treated group.
(§2) At baseline, serum glucose and blood pressure were similar in both diabetic groups. Compared to vehicle, the test compound of formula I had no effect on these parameters during the treatment period. After 18 weeks treatment, urinary protein and albumin excretion were measured. Protein excretion in the vehicle-treated group was about 18 mg/24 h; in the group which had received the compound of formula I it was about 4.8 mg/24 h (p=0.03 versus vehicle). Albumin excretion in the vehicle-group was about 0.5 mg/24 h, and in the which had received the compound of formula I it was about 0.1 mg/24 h (p=0.04). […] From the experiments it can be concluded that test compound of formula I decreases protein and albumin excretion in diabetic rats independent of blood pressure. From the results it may be concluded that the compounds of formula I exert a primary effect on end-organ disease.

[3] = system: rats with streptozotocin-induced diabetes; test: Plasma concentrations of ET-1, bigET-1 and angiotensin-II in streptozotocin-induced diabetic rats; settings: 30 mg/kg/day oral, 18 weeks
Procedure: as §1, §2

[4] = 30 mg/kg/day oral, after 18 weeks of treatment
[5] = 30 mg/kg/day oral, during the treatment period

CCOC(=O)[C@H](CCc1ccccc1)CC1(C(=O)N[C@H]2CCc3ccccc3N(CC(=O)O)C2=O)CCCC1 [test compound of formula I, (3S,2′R)-3-{1-[2′-(ethoxycarbonyl)-4′-phenylbutyl]-cyclopentane-1-carbonylamino}-2,3,4,5-tetrahydro-2-oxo-1H-1-benzazepine-1-acetic-acid]
Glomerular Filtration Rate, final, mean value [1]: 2.014 mL/min | Blood Pressure, mean value ([2]; 30 mg/kg/day oral with food, after 18 weeks of treatment, tail-cuff): 129 mmHg | Side-effects ([2]; 30 mg/kg/day oral, 18 weeks): No side-effects | Body Weight, mean value [2, 4]: 252.7 g | Glucose, final, mean value [2, 4]: 560.33 mg/dL | Heart Rate, mean value [2, 4]: 280 beats/min | Effect on blood pressure compared to vehicle [2, 5]: no effect | Effect on serum glucose compared to vehicle [2, 5]: no effect | Plasma concentration of ET-1 compared to vehicle [3]: unchanged | Plasma concentration of angiotensin-II compared to vehicle [3]: unchanged | Plasma concentration of bigET-1 compared to vehicle [3]: unchanged
